Source: PubChem BioAssay AID2060513 (Molecular Pharmacology Branch, DTP, NCI, 2025)
Several values for one entry are separate records, joined by “and”; a condition that tells them apart may be missing. Identical values can stand only once.

Tested on: 299254-011-R-J1-PDC complex spheroids viability
Test: Anticancer human tumor 299254-011-R-J1-PDC patient-derived melanoma cell line growth inhibition [GQUAD]
Details: for viability, T/C: stronger effect = lower value; for IC50: curve of compound
Text: DNA G-quadruplex Stabilizer Agents in Combinations in Complex Spheroids
A high-throughput screen of multi-cell type tumor spheroids was designed to identify active combinations of DNA G-quadruplex stabilizer agents and targeted small molecules. Complex spheroids include a stromal component modeled by human endothelial cells (HUVEC) and fibroblasts modeled by human mesenchymal stem cells (MSCs). The concentration ranges selected for each drug and investigational agent were based upon clinically achievable concentrations if the clinical Cmax of the agent was known.
Compounds. The drugs and investigational agents: pidnarulex (CX-5461; NSC782164), APTO-253 (NSC789042), BRACO-19 (NSC847499), peposertib (NSC802822), ceralasertib (NSC780249), elimusertib (NSC800525), camonsertib (NSC841442), AZD-1390 (NSC803789), olaparib (NSC753686), talazoparib (NSC767125), ART-558 (NSC835418), sotorasib (NSC818433), MRTX-1133 (NSC836407), SN-38 (NSC673596), topotecan (NSC609699), etoposide (NSC141540), doxorubicin (NSC123127), gemcitabine (NSC613327), 5-fluorouracil (NSC19893), paclitaxel (NSC125973), vemurafenib (NSC761431), panobinostat (NSC761190), R-306465 (JNJ-16241199; NSC773264), adavosertib (NSC754352), TP-3654 (NSC805149), carboplatin (NSC241240), KSQ-4279 (NSC840948), and staurosporine (NSC755774) were obtained from the National Cancer Institute (NCI) Developmental Therapeutics Program Chemical Repository (34). The FDA-approved anticancer drug set is available from the NCI Developmental Therapeutics Program. […] The stock solutions were prepared in dimethyl sulfoxide (DMSO, Sigma-Aldrich, St. Louis, MO, cat. D2650) at 800-fold the tested concentration and stored at -70 degrees C prior to their use. All drugs and investigational agents were tested over a range starting from a high concentration at or near the clinical Cmax and decreasing in half-log increments. If the clinical Cmax for an agent had not been determined, the highest concentration tested was 10 microM.
2.3 Cell Culture. All cells were maintained in an incubator at 37 degrees C and 5% CO2 with 95% humidity. The PDC lines were cultured according to standard operating procedures established by the NCI PDMR. All PDCs were thawed and cultured in Matrigel-coated flasks prepared with a working solution of 1X Ham's F-12 nutrient mix, without supplementation (Invitrogen, cat. 11765054), 100 U/mL penicillin-streptomycin (Invitrogen, cat. 15140122), and 2.5% Matrigel (Corning Inc., cat. 354248) for the first three passages. The 857933-349-R-J2-PDC line was cultured in 6C/Colon 1B media, which includes advanced DMEM/F-12 (Thermo Fisher Scientific, cat. 12634028), 10 mM HEPES (Thermo Fisher Scientific, cat. 15630080), 1X GlutaMAX supplement (Thermo Fisher Scientific, cat. 35050061), 0.1 mg/mL primocin (InvivoGen, cat. ant-pm-2), 10% defined fetal bovine serum, heat inactivated (HyClone Laboratories Inc., cat. SH30070.03HI), 50% L-WRN conditioned media (ATCC, cat. CRL-3276), 1.25 mM N-Acetyl-L-cysteine (Sigma-Aldrich, cat. A9165), 10 mM nicotinamide (Sigma-Aldrich, cat. N0636), 1X B-27 supplement (Thermo Fisher Scientific, cat. 17504044), 1X N-2 supplement (Thermo Fisher Scientific, cat. 17502048), 10 microM Y-27632 dihydrochloride (Tocris Bioscience, cat. 1254), and 50 ng/mL human EGF recombinant protein (Thermo Fisher Scientific, cat. PHG0311). The 485176-168-R4-J1-PDC line was cultured in Panc media, which includes all 6C/Colon 1B media components plus 100 ng/mL human FGF-10 (Thermo Fisher Scientific, cat. 100-26), 500 nM SB-431542 (Selleckchem, cat. S1067), and gastrin (Tocris, cat. 3006).
[…]
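Further: spheroids exposed to the agents for seven days before readout.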
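Wherever viability, T/C is given: percent viability relative to DMSO vehicle control wells = 100%.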

| SMILES | IC50 | viability, T/C (compound 0.0316 µM) | viability, T/C (compound 0.1 µM) | viability, T/C (compound 0.316 µM) | viability, T/C (compound 1 µM) | viability, T/C (compound 3.16 µM) | viability, T/C (compound 10 µM) | viability, T/C (compound 0.000999 µM) | viability, T/C (compound 0.00316 µM) | viability, T/C (compound 0.00999 µM) | viability, T/C (compound 0.0999 µM) |
| --- | --- | --- | --- | --- | --- | --- | --- | --- | --- | --- | --- |
| C#Cc1c(F)ccc2cc(O)cc(-c3ncc4c(N5CC6CCC(C5)N6)nc(OCC56CCCN5CC(F)C6)nc4c3F)c12 (centres undefined) | > 10000 nM | 117% and 84.2% and 84% | 109% and 86.1% and 98.1% | 90.8% and 85.1% and 95.8% | 118% and 83.9% and 81% | 86.5% and 93.7% and 84.6% | 82.7% and 72.7% and 67.4% | – | – | – | – |
| CC(=O)O[C@H]1C(=O)[C@@]2(C)[C@H]([C@H](OC(=O)c3ccccc3)[C@]3(O)C[C@H](OC(=O)[C@H](O)[C@@H](NC(=O)c4ccccc4)c4ccccc4)C(C)=C1C3(C)C)[C@]1(OC(C)=O)CO[C@@H]1C[C@@H]2O | 483 nM and 423 nM and 306 nM | 102% and 92% and 92.4% | 86.3% and 73.8% and 59% | 60.6% and 55.7% and 63.9% | 32% and 37.8% and 26.7% | 18.9% and 18.2% and 24.1% | 12% and 17.6% and 19.5% | – | – | – | – |
| CC(C)(O)C1CCC(Nc2ccc3ncc(-c4cccc(C(F)(F)F)c4)n3n2)CC1 (centres undefined) | > 10000 nM | 108% and 89.2% and 122% | 113% and 90% and 91.5% | 91.8% and 99.5% and 99.2% | 98% and 96.9% and 84.3% | 95.5% and 102% and 70.9% | 119% and 110% and 103% | – | – | – | – |
| CC1COCCN1c1cc(C2(O)CC3CCC(C2)O3)c2cnn(-c3ccn[nH]3)c2n1 (centres undefined) | 92.6 nM and 99.2 nM and 173 nM | 116% and 87.6% and 93.3% | 42.7% and 48.7% and 67.2% | 23.7% and 29.9% and 29.5% | 12.7% and 12.4% and 18.8% | 10.2% and 10.5% and 10.9% | 4.19% and 8.01% and 5.02% | – | – | – | – |
| CC1COCCN1c1cc(C2(S(C)(=N)=O)CC2)nc(-c2ccnc3[nH]ccc23)n1 (centres undefined) | 4410 nM and 4700 nM and 1810 nM | 98.9% (2×) and 94.3% | 100% and 103% and 80.5% | 79.7% and 97% and 97.8% | 68% and 100% and 61% | 67.9% and 60.8% and 37.7% | 28.7% and 29.5% and 16.5% | – | – | – | – |
| CCCS(=O)(=O)Nc1ccc(F)c(C(=O)c2c[nH]c3ncc(-c4ccc(Cl)cc4)cc23)c1F | 7690 nM and 9110 nM and 9320 nM | 130% and 120% and 109% | 101% and 98.5% and 102% | 92.2% and 107% and 95.9% | 107% and 104% and 112% | 80.6% and 104% and 103% | 39.9% and 45.2% and 46.6% | – | – | – | – |

Further lines, with some results ahead:

| IC50 | SMILES | viability, T/C (compound 0.0316 µM) | viability, T/C (compound 0.1 µM) | viability, T/C (compound 0.316 µM) | viability, T/C (compound 1 µM) | viability, T/C (compound 3.16 µM) | viability, T/C (compound 10 µM) | viability, T/C (compound 0.000999 µM) | viability, T/C (compound 0.00316 µM) | viability, T/C (compound 0.00999 µM) | viability, T/C (compound 0.0999 µM) |
| --- | --- | --- | --- | --- | --- | --- | --- | --- | --- | --- | --- |
| > 10000 nM | C=CC(=O)N1CCN(c2nc(=O)n(-c3c(C)ccnc3C(C)C)c3nc(-c4c(O)cccc4F)c(F)cc23)C(C)C1 (centres undefined) | 79% and 95.8% and 88.2% | 57.3% and 82.7% and 63.5% | 81% and 65.1% and 59% | 59.5% and 59.8% and 59% | 60.7% and 61% and 69.7% | 68.5% and 69.6% and 66.1% | – | – | – | – |
| 1580 nM and 1570 nM and 1380 nM | C=CCn1c(=O)c2cnc(Nc3ccc(N4CCN(C)CC4)cc3)nc2n1-c1cccc(C(C)(C)O)n1 | 114% and 117% and 102% | 98.4% and 92.5% and 100% | 87.5% and 73% and 83.4% | 60% and 62% and 52.8% | 32.2% and 34% and 37.9% | 36.5% and 32.4% and 20.3% | – | – | – | – |
| > 10000 nM and 9520 nM and 9660 nM | CC(C)n1c(=O)n(C)c2cnc3cc(F)c(-c4ccc(OCCCN5CCCCC5)nc4)cc3c21 | 104% and 100% and 97% | 87.8% and 78.1% and 79% | 102% and 101% and 90.2% | 104% and 76.4% and 83.5% | 93% and 75% and 78.9% | 55.8% and 48.2% and 48.6% | – | – | – | – |
| 122 nM and 186 nM and 137 nM | CC1COCCN1c1cc(-c2ccnn2C)c2ccnc(-c3ccn[nH]3)c2n1 (centres undefined) | 91.4% and 103% and 81.2% | 51.7% and 66.5% and 56.5% | 36.6% and 36.5% and 32.7% | 17.9% and 19.7% and 18.7% | 22.7% and 13.6% and 13.7% | 11.9% and 15.1% and 13.6% | – | – | – | – |
| > 316 nM | CC[C@@]1(O)C(=O)OCc2c1cc1n(c2=O)Cc2cc3c(CN(C)C)c(O)ccc3nc2-1 | 85.7% and 102% and 117% | – | 97.9% and 88% and 91.1% | – | – | – | 91.8% and 98.4% and 103% | 94% and 117% and 106% | 93.8% and 93.5% and 91.8% | 80.3% and 103% and 96.4% |
| > 316 nM | CCc1c2c(nc3ccc(O)cc13)-c1cc3c(c(=O)n1C2)COC(=O)[C@]3(O)CC | 64.8% and 104% and 70.9% | – | 89.8% and 84.2% and 73.6% | – | – | – | 94.3% and 102% and 120% | 83.9% and 104% and 97.4% | 87.7% and 72.2% and 92.2% | 80% and 86.2% and 77.4% |
